Patent publication US10138253B2, “Imidazopyridine macrocycles as inhibitors of human immunodeficiency virus replication” (priority 2015, dated 2018)
Read-outs that look alike come from different tables or passages of the source.

Columns and labels:
[1] = ether bond, 20-membered ring, PPh3/DIAD, THF
[2] = ether bond, PPh3/DIAD, THF
[3] = from COC(=O)[C@@H](OC(C)(C)C)c1c(C)cc2nc(-c3cccc(-c4ccc(C)cc4O)c3)cn2c1N1CCC(C)(OCCOC[C@@H](C)O)CC1, 1.41 mM, 1.0 h
[4] = from COC(=O)[C@@H](OC(C)(C)C)c1c(C)cc2nc(-c3cccc(-c4cc(F)c(F)cc4O)c3)cn2c1N1CCC(C)(OCCOC[C@@H](C)O)CC1, 10.0 mM, 0.5 h

Structure (SMILES): COC(=O)[C@@H](OC(C)(C)C)c1c(C)cc2nc3cn2c1N1CCC(C)(CC1)OCCOC[C@H](C)Oc1cc(C)ccc1-c1cccc-3c1
- ring closure, isolated yield [1, 3]: 65%
- ring closure, yield of all isomers [2, 3]: 65%

Structure (SMILES): COC(=O)[C@@H](OC(C)(C)C)c1c(C)cc2nc3cn2c1N1CCC(C)(CC1)OCCOC[C@H](C)Oc1cc(F)c(F)cc1-c1cccc-3c1
- ring closure, isolated yield [1, 4]: 95%
- ring closure, yield of all isomers [2, 4]: 95%
